We go through 24 compounds from ChEMBL document CHEMBL1151706, “Hetero-Diels-Alder reaction of 1,3-bis(trimethylsilyloxy)-1,3-butadienes with arylsulfonylcyanides. Synthesis and antimicrobial activity of 4-hydroxy-2-(arylsulfonyl)pyridines” (2008).

What all share (type): functional
Test [1] deals with Staphylococcus aureus. In words: Antibacterial activity against Staphylococcus aureus ATCC 6538 assessed as diameter of the inhibition zone at 1 uM/disk after 4 hrs by disk diffusion method. The conditions noted are these: for zone of inhibition at 1 µM: ATCC 6538, 4 h, read-out: IZ. (In agar diffusion tests the substance spreads into inoculated agar from a disc or well.)
The test system of test [2] is Bacillus subtilis. Nature of the test: Antibacterial activity against Bacillus subtilis ATCC 6051 assessed as diameter of the inhibition zone at 1 uM/disk after 4 hrs by disk diffusion method. The conditions noted are these: for zone of inhibition at 1 µM: ATCC 6051, 4 h, read-out: IZ.
The subject of another test is Escherichia coli. In words: Antibacterial activity against Escherichia coli ATCC 11229 assessed as diameter of the inhibition zone at 1 uM/disk after 4 hrs by disk diffusion method.
Another test deals with Candida maltosa. Nature of the test: Antifungal activity against Candida maltosa SBUG 700 assessed as diameter of the inhibition zone at 1 uM/disk by disk diffusion method.
Test [3] relates to Staphylococcus aureus. Nature of the test: Antibacterial activity against Staphylococcus aureus ATCC 6538 by dilution assay.
Test [4] relates to Bacillus subtilis. In words: Antibacterial activity against Bacillus subtilis ATCC 6051 by dilution assay.

Values after ≈ are worked out from the molar mass of the structure shown. Active and inactive are the calls of the source. The calls are words filed in the database; no cut-off is given here.

By MIC is commonly meant the least concentration at which growth counts as inhibited. Lower therefore signals greater potency.

For the compound `COc1cc(O)cc(S(=O)(=O)c2ccccc2)n1`, the result in the test with Staphylococcus aureus [1], in the test with Bacillus subtilis [2], in the test on Escherichia coli and in the test with Candida maltosa was inactive.

For the compound `CCc1c(O)cc(S(=O)(=O)c2ccccc2)nc1OC`, the result in the test with Staphylococcus aureus [1], with Bacillus subtilis [2], with Escherichia coli and in the test on Candida maltosa was inactive.

Turning to `CCOc1nc(S(=O)(=O)c2ccc(C)cc2)cc(O)c1F`, the outcome in the test with Staphylococcus aureus [1], with Escherichia coli and with Candida maltosa was inactive. Further, the zone of inhibition at 1 µM in the test on Bacillus subtilis [2] came out at 11 mm.

In the case of `Cc1nc(S(=O)(=O)c2ccccc2)cc(O)c1Sc1ccccc1`, the zone of inhibition at 1 µM in the test on Staphylococcus aureus [1] is 9 mm; in the test on Bacillus subtilis [2], 10 mm. Further, the outcome in the test on Escherichia coli and in the test with Candida maltosa was inactive.

With `CCOc1nc(S(=O)(=O)c2ccccc2)cc(O)c1Cl`, the zone of inhibition at 1 µM with Staphylococcus aureus [1] came to 12 mm; with Bacillus subtilis [2], 11 mm. In addition, the outcome with Escherichia coli and with Candida maltosa was inactive. Further, the MIC in the test with Staphylococcus aureus [3] and against Bacillus subtilis [4] was 1590 µM (≈ 499 µg/mL) throughout.

Consider `CCOc1cc(O)cc(S(=O)(=O)c2ccc(C)cc2)n1`, for which the result in the test on Staphylococcus aureus [1], with Bacillus subtilis [2], in the test with Escherichia coli and with Candida maltosa was inactive.

Turning to `CCOc1cc(O)cc(S(=O)(=O)c2ccccc2)n1`, the outcome with Staphylococcus aureus [1], in the test with Bacillus subtilis [2], in the test with Escherichia coli and in the test with Candida maltosa was inactive.

Turning to `Cc1ccc(Sc2c(O)cc(S(=O)(=O)c3ccc(C)cc3)nc2C)cc1`, the figures for the zone of inhibition at 1 µM in the test on Staphylococcus aureus [1] and in the test with Bacillus subtilis [2] were 8 mm and 10 mm, respectively. The result in the test on Escherichia coli and with Candida maltosa was inactive. Moreover, the MIC against Staphylococcus aureus [3] was found to be 320 µM (≈ 123 µg/mL); against Bacillus subtilis [4], 160 µM (≈ 61.7 µg/mL).

In the case of `COCc1cc(O)cc(S(=O)(=O)c2ccc(C)cc2)n1`, the outcome with Staphylococcus aureus [1], with Bacillus subtilis [2], with Escherichia coli and in the test on Candida maltosa was inactive.

Take `COc1cc(O)cc(S(=O)(=O)c2ccc(C)cc2)n1`: the zone of inhibition at 1 µM with Staphylococcus aureus [1] was 10 mm. The outcome in the test with Bacillus subtilis [2], with Escherichia coli and in the test on Candida maltosa was inactive.

In the case of `Cc1ccc(S(=O)(=O)c2cc(O)c(Oc3cccc(C)c3)c(C)n2)cc1`, the outcome in the test on Staphylococcus aureus [1], in the test with Bacillus subtilis [2], with Escherichia coli and with Candida maltosa was inactive.

In the case of `Cc1ccc(S(=O)(=O)c2cc(O)c(Sc3ccccc3)c(C)n2)cc1`, the outcome with Staphylococcus aureus [1], in the test on Escherichia coli and with Candida maltosa was inactive. For the same compound, the zone of inhibition at 1 µM with Bacillus subtilis [2] is 10 mm. In addition, the MIC against Staphylococcus aureus [3] is 670 µM (≈ 249 µg/mL); against Bacillus subtilis [4], 340 µM (≈ 126 µg/mL).

Consider `Cc1ccc(S(=O)(=O)c2cc(O)cc(C)n2)cc1`, for which the outcome with Staphylococcus aureus [1], in the test on Bacillus subtilis [2], in the test on Escherichia coli and with Candida maltosa was inactive.

As to `Cc1cccc(Sc2c(O)cc(S(=O)(=O)c3ccccc3)nc2C)c1`, the zone of inhibition at 1 µM is 13 mm with Staphylococcus aureus [1] and 10 mm in the test on Bacillus subtilis [2]. The result in the test on Escherichia coli and with Candida maltosa was inactive. The MIC came to 670 µM (≈ 249 µg/mL) with Staphylococcus aureus [3] and 330 µM (≈ 123 µg/mL) against Bacillus subtilis [4].

In the case of `CCOc1nc(S(=O)(=O)c2ccccc2)cc(O)c1F`, the zone of inhibition at 1 µM in the test on Staphylococcus aureus [1] is 12 mm; in the test on Bacillus subtilis [2], 11 mm. In addition, the outcome in the test with Escherichia coli and in the test with Candida maltosa was inactive. The MIC against Staphylococcus aureus [3] amounted to 3360 µM (≈ 999 µg/mL); against Bacillus subtilis [4], 1680 µM (≈ 499 µg/mL).

As to `Cc1ccc(Oc2c(O)cc(S(=O)(=O)c3ccc(C)cc3)nc2C)cc1`, the zone of inhibition at 1 µM stood at 8 mm in the test with Staphylococcus aureus [1] and 7 mm in the test with Bacillus subtilis [2]. The result with Escherichia coli and with Candida maltosa was inactive.

`CCOc1nc(S(=O)(=O)c2ccccc2)cc(O)c1Oc1cc(C)cc(C)c1`: the outcome in the test on Staphylococcus aureus [1], with Bacillus subtilis [2], with Escherichia coli and in the test on Candida maltosa was inactive.

`CCOc1nc(S(=O)(=O)c2ccc(C)cc2)cc(O)c1Cl`: the zone of inhibition at 1 µM worked out at 13 mm in the test on Staphylococcus aureus [1], 10 mm in the test with Bacillus subtilis [2] and 9 mm in the test on Candida maltosa (read-out: IZ). In the test with Escherichia coli, the outcome was inactive. The MIC with Staphylococcus aureus [3] worked out at 1530 µM (≈ 502 µg/mL); in the test with Bacillus subtilis [4], 1520 µM (≈ 498 µg/mL).

Turning to `COc1nc(S(=O)(=O)c2ccccc2)cc(O)c1Sc1ccccc1`, the result with Staphylococcus aureus [1], in the test with Escherichia coli and with Candida maltosa was inactive. In the test on Bacillus subtilis [2], the zone of inhibition at 1 µM amounted to 10 mm.

As to `CC(C)Oc1cc(O)cc(S(=O)(=O)c2ccccc2)n1`, the outcome with Staphylococcus aureus [1], with Bacillus subtilis [2], in the test with Escherichia coli and in the test on Candida maltosa was inactive.

As to `COCCOc1cc(O)cc(S(=O)(=O)c2ccc(C)cc2)n1`, the result in the test with Staphylococcus aureus [1], in the test on Bacillus subtilis [2], in the test with Escherichia coli and in the test with Candida maltosa was inactive.

On to `CC1(C)S[C@@H]2[C@H](NC(=O)[C@H](N)c3ccccc3)C(=O)N2[C@H]1C(=O)O` [AMPICILLIN], for which the zone of inhibition at 1 µM came to 27 mm with Staphylococcus aureus [1]; 25 mm in the test with Bacillus subtilis [2]; 19 mm in the test with Escherichia coli (ATCC 11229, 4 h, read-out: IZ). For the same compound, the MIC is 3 µM (≈ 1.05 µg/mL) in the test on Staphylococcus aureus [3] and 11 µM (≈ 3.84 µg/mL) against Bacillus subtilis [4].

Turning to `CCOc1nc(S(=O)(=O)c2ccc(C)cc2)cc(O)c1Oc1cc(C)cc(C)c1`, the zone of inhibition at 1 µM in the test on Staphylococcus aureus [1] is 8 mm. The result in the test with Bacillus subtilis [2], with Escherichia coli and in the test with Candida maltosa was inactive.

With NYSTATIN, in the test on Candida maltosa, the inhibition zone (IZ) is 28 mm.
